Measurements: ChEMBL document CHEMBL1201862, “PubChem BioAssay data set” (2004)
Activity calls are given as the source filed them.

Experiments:
[1] = biological target: Troponin, cardiac muscle (Homo sapiens, UniProt P19429+P45379+P63316); experiment: Fluorescence-based biochemical high throughput dose response assay for activators of the calcium sensitivity of cardiac Regulated Thin Filaments (RTF). [Related pubchem assays (depositor defined):AID493008, AID493018, AID504382, AID504383]; format: protein-complex assay
[2] = Shn3 3'UTR reporter inhibitors, dose response, cell-based, Clone20 osteoblasts, firefly luciferase, cherry-picked (AID 624132); format: functional;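 also: firefly luciferase luminescence from reporter carrying the Shn3 3'UTR in osteoblasts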
[3] = biological target: T1, SUMO-activating enzyme (Homo sapiens, UniProt Q9UBT2); experiment: inhibitors of in vitro SUMOylation cascade, primary screen, biochemical, HTRF, uHTS (AID 2006); format: protein-complex assay
T1 sequence (Q9UBE0 whole entry): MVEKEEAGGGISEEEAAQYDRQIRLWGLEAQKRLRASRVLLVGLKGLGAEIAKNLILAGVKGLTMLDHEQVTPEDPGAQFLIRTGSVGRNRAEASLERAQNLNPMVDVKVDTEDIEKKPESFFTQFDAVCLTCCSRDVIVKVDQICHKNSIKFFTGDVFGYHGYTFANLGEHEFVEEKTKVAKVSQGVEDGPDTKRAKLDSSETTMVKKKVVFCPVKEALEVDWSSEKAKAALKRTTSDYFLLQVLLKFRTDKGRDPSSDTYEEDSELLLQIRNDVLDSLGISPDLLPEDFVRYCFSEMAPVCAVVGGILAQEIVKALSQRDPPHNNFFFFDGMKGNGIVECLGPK
T1 sequence (Q9UBT2 whole entry): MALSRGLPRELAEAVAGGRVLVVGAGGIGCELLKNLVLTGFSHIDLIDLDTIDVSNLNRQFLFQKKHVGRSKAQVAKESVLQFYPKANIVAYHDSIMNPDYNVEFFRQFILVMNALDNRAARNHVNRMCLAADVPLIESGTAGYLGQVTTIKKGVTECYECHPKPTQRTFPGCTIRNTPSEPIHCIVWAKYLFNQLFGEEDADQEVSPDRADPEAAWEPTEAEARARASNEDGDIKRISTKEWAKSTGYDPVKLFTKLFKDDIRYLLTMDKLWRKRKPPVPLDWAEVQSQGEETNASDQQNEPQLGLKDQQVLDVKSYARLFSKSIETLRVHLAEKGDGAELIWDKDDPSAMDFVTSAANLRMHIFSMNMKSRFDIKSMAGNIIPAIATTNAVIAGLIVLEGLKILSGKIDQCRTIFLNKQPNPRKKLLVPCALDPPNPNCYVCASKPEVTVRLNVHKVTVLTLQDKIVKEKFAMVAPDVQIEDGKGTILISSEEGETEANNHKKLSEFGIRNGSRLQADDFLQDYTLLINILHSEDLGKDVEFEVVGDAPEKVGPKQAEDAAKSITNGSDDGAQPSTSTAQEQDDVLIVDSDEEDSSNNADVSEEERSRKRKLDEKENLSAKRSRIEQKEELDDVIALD

[4] = control 3'UTR Renilla luciferase suppression, dose response, counter-screen for Shn3 inhibitor project, cell-based, Clone20-Shn3RL, cherry-picked (AID 624133); format: functional
[5] = HepG2 cell cytotoxicity, dose response, cytotoxicity control for Shn3 inhibitor project, CellTiter-Glo, cherry-picked (AID 624134); format: functional, cell-based
[6] = cells; format: functional, cell-based
[7] = biological target: T2, Exodeoxyribonuclease V (Escherichia coli (strain K12), UniProt P04993+P07648+P08394); experiment: E. coli RecBCD inhibitors, dose response, counter-screen for AddAB inhibitor project, absorbance, V66 E. coli, mutant T4 phage (AID 492957); format: functional, cell-based, Escherichia coli str. K-12 substr. MG1655
T2 sequence (P04993 whole entry): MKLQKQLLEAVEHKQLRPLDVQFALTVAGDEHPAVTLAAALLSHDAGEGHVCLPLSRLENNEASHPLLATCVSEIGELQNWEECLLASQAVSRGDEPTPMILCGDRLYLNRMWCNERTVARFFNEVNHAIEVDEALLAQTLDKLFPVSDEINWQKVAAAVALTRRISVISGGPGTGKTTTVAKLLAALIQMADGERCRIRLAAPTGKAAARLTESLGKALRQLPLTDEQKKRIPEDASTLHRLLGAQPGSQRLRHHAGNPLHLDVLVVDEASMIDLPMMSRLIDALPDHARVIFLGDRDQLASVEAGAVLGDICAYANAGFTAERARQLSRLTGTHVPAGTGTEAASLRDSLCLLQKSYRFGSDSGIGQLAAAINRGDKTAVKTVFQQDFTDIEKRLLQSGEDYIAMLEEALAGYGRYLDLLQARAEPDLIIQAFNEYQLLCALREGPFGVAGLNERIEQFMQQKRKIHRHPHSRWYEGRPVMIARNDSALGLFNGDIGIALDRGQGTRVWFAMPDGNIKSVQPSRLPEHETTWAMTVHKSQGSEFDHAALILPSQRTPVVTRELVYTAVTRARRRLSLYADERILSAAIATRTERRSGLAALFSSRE
T2 sequence (P07648 whole entry): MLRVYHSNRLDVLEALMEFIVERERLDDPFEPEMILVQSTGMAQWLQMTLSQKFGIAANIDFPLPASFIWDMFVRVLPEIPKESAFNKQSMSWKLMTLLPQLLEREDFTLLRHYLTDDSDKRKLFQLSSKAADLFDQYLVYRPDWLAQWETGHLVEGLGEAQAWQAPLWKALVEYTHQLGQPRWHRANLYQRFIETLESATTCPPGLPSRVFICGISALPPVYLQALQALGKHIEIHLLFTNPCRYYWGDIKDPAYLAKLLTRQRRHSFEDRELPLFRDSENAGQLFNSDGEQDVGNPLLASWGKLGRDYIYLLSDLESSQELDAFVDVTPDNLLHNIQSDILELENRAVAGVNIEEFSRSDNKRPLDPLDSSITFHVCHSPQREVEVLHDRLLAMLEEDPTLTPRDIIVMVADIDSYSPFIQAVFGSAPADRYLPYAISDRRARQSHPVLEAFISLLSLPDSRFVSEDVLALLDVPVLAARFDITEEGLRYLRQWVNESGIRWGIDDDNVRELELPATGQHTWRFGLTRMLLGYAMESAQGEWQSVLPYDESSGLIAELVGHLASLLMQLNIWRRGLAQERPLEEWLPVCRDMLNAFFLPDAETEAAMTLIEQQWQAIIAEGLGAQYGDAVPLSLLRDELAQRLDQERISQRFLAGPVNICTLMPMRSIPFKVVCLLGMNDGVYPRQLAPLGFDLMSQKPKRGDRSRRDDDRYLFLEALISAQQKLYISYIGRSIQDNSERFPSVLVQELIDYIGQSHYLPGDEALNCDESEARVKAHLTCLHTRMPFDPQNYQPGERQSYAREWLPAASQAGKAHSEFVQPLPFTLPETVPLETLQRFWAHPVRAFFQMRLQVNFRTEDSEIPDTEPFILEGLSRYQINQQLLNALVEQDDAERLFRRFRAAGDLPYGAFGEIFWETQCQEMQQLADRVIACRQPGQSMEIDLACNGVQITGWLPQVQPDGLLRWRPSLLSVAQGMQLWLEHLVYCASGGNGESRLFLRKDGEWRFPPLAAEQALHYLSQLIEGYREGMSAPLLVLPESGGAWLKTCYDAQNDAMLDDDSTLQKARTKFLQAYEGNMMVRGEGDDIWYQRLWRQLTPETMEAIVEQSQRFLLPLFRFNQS
T2 sequence (P08394 whole entry): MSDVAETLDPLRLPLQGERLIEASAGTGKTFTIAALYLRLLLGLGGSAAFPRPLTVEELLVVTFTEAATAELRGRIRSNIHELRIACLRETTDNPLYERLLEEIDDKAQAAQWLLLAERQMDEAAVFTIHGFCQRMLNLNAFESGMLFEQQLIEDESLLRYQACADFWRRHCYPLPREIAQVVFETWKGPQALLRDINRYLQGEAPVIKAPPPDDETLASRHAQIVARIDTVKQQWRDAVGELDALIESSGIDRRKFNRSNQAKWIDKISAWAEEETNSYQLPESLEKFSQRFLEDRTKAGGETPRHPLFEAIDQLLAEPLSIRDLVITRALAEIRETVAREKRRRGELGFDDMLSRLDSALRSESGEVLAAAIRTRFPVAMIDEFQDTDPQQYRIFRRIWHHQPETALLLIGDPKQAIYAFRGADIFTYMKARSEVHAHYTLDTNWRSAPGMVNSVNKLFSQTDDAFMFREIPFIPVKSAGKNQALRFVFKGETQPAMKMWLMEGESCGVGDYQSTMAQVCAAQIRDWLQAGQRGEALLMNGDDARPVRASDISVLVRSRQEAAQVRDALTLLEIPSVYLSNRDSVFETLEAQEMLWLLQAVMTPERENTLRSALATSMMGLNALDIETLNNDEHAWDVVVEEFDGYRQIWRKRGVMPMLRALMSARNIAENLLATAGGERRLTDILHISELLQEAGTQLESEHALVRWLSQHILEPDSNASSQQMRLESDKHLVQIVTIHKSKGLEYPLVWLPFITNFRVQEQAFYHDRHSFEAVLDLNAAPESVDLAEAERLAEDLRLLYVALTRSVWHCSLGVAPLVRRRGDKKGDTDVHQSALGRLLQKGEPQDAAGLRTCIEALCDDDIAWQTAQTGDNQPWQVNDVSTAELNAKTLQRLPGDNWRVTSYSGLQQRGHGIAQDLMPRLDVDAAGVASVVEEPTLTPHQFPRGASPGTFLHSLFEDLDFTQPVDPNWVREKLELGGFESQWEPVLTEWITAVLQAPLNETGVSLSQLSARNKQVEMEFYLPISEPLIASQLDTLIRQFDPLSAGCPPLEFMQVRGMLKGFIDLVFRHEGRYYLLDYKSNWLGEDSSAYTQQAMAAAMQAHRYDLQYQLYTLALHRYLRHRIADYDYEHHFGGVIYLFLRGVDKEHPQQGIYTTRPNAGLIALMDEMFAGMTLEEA

[8] = biological target: T1, SUMO-activating enzyme; experiment: SUMOylation inhibitor hit validation, confirmation, SUMOylation inhibitor project, biochemical, AlphaScreen (AID 2018); format: functional
[9] = system: INS1; experiment: beta cell apoptosis inhibitors, cytokine rescue, dose response, luminescence, retest (AID 449756); format: functional, cell-based; settings: Rattus norvegicus;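 also: cell death triggered by IL-1 beta plus TNF-alpha plus IFN-gamma mixture; protective hits raise ATP signal compared with cytokine alone wells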
[10] = Counterscreen for AddAB inhibitors: absorbance-based bacterial cell-based high throughput dose response assay for inhibitors of bacterial viability. [Related pubchem assays (depositor defined):AID435030, AID449728, AID449731, AID488942, AID488955, AID488956]; format: functional
[11] = cells; format: functional, cell-based; remark: listed apart in the source
[12] = biological target: T3, Perilipin-1/ABHD5 (Homo sapiens, UniProt O60240+Q8WTS1); experiment: Luminescence-based biochemical high throughput dose response assay for inhibitors of the interaction of the lipase co-activator protein, abhydrolase domain containing 5 (ABHD5) with perilipin-1 (PLIN1) (2K validation set). [Related pubchem assays (depositor defined):AID493027, AID493057]
T3 sequence (Q8WTS1 whole entry): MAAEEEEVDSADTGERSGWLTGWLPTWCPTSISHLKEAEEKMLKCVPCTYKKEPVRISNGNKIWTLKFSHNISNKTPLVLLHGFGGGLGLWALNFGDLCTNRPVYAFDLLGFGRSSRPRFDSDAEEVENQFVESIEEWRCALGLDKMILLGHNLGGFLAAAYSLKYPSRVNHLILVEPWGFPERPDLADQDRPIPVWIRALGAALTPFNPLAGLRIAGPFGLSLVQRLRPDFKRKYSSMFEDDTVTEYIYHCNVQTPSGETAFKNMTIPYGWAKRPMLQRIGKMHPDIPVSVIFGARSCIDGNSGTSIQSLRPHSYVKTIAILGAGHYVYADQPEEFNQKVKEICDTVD
T3 sequence (O60240 whole entry): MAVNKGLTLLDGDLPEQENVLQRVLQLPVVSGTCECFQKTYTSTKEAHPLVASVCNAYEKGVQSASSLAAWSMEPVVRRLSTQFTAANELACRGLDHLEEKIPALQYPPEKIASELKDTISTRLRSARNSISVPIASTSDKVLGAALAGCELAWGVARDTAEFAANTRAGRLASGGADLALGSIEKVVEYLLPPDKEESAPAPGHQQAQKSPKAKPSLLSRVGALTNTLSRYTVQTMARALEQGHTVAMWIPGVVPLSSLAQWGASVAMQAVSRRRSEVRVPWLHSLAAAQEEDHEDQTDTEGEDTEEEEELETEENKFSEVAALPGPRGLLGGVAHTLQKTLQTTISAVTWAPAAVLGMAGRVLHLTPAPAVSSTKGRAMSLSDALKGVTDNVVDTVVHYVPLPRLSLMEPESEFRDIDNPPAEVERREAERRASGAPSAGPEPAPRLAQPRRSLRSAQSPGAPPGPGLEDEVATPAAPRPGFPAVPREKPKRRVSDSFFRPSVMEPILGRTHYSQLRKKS

[13] = biological target: T4, 1-acylglycerol-3-phosphate O-acyltransferase ABHD5/Perilipin-5 (Homo sapiens, UniProt Q00G26+Q8WTS1); experiment: Luminescence-based biochemical high throughput dose response assay for inhibitors of the interaction of the lipase co-activator protein, abhydrolase domain containing 5 (ABHD5) with perilipin-5 (MLDP; PLIN5) (2K validation set). [Related pubchem assays (depositor defined):AID493035, AID493241]
T4 sequence (Q00G26 whole entry): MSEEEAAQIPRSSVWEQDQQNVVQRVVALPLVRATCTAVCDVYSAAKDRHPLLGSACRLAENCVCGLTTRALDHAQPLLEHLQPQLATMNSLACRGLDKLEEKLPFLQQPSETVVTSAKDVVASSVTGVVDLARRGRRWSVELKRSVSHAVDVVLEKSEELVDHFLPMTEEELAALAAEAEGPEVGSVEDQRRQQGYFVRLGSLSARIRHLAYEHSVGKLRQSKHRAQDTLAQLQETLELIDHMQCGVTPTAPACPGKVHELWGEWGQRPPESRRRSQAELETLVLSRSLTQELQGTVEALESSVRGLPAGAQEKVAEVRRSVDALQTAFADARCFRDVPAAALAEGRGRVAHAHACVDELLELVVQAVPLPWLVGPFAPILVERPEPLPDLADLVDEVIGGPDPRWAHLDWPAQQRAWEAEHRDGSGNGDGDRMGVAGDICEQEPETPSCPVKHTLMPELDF
T4 sequence (Q8WTS1 whole entry): T3 sequence (Q8WTS1 whole entry)

[14] = biological target: Intestinal-type alkaline phosphatase (Homo sapiens, UniProt P09923); experiment: Dose Response confirmation of uHTS hits from a small molecule inhibitors of human intestinal alkaline phosphatase via a luminescent assay. [Related pubchem assays (depositor defined):AID2544, AID2574]; format: functional
Intestinal-type alkaline phosphatase, sequence (P09923 whole entry): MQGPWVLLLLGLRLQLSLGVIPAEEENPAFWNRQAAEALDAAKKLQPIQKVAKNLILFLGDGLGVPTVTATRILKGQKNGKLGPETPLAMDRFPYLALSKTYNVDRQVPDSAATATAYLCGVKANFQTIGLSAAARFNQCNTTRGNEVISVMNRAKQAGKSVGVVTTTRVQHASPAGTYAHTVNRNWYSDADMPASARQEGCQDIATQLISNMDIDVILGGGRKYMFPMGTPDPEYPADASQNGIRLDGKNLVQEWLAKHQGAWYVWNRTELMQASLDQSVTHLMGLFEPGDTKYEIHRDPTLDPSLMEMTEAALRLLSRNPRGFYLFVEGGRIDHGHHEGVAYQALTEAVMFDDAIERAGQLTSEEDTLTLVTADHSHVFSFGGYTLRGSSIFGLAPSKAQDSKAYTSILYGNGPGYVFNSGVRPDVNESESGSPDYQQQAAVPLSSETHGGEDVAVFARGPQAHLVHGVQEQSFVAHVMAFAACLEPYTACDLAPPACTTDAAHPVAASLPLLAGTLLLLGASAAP

[15] = biological target: T5, Voltage-gated N-type calcium channel alpha-1B subunit/Amyloid beta A4 precursor protein-binding family A member 1 (Homo sapiens, UniProt Q00975+Q02410); format: protein assay
T5 sequence (Q00975 whole entry): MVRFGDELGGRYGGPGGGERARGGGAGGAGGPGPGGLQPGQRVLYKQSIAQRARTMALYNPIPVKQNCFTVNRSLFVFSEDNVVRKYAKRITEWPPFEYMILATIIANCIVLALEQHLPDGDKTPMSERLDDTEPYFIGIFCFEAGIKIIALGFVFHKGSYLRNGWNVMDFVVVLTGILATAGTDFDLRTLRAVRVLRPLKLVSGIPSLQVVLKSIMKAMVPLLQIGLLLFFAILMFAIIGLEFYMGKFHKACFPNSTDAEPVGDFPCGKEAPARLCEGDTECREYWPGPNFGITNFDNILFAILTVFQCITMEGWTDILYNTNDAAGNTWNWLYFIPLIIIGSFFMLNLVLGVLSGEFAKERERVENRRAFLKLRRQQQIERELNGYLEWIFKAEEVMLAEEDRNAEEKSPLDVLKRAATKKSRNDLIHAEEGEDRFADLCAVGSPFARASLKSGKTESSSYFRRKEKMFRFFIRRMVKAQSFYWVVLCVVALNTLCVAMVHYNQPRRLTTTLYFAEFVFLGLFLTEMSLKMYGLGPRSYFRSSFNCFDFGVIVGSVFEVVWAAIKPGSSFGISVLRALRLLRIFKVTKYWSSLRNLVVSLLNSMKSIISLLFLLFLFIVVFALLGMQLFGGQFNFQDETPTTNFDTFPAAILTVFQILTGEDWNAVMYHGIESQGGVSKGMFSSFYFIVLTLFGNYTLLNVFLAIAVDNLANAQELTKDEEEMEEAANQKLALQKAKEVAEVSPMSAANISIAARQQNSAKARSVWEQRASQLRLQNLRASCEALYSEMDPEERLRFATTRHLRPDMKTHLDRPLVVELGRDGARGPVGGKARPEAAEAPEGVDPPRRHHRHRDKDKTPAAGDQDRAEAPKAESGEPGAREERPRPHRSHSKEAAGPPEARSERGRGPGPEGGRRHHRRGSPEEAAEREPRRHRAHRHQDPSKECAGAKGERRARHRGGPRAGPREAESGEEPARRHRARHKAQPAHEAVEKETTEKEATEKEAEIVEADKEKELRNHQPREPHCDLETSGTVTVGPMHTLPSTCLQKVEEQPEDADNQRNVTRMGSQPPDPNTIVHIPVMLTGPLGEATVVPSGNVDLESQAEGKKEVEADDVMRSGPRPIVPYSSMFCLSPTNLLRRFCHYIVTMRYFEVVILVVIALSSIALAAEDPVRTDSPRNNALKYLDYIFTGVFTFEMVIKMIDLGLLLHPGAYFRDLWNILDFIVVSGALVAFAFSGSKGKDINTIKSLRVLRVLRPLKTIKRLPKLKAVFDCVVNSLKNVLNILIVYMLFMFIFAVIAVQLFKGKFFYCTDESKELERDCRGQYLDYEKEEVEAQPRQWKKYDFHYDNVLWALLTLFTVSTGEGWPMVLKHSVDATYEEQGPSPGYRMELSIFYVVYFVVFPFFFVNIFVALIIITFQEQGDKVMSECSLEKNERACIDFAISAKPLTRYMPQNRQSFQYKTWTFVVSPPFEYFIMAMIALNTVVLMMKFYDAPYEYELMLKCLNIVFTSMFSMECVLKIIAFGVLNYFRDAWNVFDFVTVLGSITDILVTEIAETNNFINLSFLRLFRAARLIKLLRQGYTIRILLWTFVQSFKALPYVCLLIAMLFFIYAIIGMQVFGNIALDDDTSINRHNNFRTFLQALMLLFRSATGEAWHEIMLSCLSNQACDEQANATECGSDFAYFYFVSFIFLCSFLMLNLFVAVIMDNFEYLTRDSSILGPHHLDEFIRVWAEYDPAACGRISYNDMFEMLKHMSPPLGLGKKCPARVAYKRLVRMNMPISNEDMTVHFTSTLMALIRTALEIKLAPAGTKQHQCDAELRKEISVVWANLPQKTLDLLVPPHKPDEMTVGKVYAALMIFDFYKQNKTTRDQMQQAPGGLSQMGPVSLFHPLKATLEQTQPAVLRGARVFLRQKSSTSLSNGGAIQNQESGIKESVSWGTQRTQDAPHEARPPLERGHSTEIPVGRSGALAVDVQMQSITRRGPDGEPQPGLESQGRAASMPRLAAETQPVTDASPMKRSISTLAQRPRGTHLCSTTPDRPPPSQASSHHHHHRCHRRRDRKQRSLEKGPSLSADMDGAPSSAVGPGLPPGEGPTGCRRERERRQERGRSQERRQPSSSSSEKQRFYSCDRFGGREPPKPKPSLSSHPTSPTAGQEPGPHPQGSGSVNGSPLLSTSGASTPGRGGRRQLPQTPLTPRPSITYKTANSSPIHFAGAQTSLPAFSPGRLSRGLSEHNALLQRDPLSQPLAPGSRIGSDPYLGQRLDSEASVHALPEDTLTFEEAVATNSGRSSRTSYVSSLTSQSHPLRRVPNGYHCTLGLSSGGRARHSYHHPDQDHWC
T5 sequence (Q02410 whole entry): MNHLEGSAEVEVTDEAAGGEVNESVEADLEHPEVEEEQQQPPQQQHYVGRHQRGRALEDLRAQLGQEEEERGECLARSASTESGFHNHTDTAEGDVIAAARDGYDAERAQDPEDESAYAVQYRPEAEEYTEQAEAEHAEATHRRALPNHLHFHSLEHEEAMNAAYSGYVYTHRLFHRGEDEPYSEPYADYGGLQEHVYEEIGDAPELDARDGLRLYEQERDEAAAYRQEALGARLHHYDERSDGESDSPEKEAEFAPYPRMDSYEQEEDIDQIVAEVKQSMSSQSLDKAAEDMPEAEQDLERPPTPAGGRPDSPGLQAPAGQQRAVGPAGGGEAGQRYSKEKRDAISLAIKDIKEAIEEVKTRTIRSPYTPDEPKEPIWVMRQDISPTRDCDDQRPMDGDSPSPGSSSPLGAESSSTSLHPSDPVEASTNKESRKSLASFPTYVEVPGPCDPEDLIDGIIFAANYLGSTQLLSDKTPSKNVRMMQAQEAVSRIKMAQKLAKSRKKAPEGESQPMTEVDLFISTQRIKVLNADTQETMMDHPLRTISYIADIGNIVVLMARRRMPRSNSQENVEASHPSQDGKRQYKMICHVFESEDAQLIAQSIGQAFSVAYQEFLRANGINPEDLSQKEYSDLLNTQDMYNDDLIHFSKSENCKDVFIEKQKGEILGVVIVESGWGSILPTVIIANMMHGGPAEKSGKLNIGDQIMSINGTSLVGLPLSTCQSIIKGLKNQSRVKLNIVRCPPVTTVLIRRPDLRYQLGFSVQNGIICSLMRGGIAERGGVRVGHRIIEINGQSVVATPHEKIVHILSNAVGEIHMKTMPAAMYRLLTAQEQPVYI

[16] = biological target: T5, Voltage-gated N-type calcium channel alpha-1B subunit/Amyloid beta A4 precursor protein-binding family A member 1; format: protein assay; remark: listed apart in the source

## COc1cc(N2CCCC2)c(OC)cc1/C=C1/NC(=S)NC1=O
[1]
  EC50: 1.14 µM (active)

## CCCCC(=O)NC(c1ccccc1Cl)c1ccc2cccnc2c1O (configuration not stated)
[2]
  AC50: 1.12 µM (active)
[3]
  IC50: > 100 µM (inactive)
[4]
  AC50: 0.856 µM (active)
[5]
  AC50: 3.56 µM (active)
[6]
  EC50: 8.93 µM (active)
[7]
  IC50: > 119 µM (inactive)
[8]
  IC50: 9.96 µM (active)
[9]
  AC50: 0.645 µM (active)
[10]
  IC50: > 119 µM (inactive)
[11]
  EC50: > 350 µM (not active)

## CSCCC(NC(=O)OC(C)(C)C)C(=O)Oc1ccc2c(=O)c(-c3ccc4c(c3)OCCO4)coc2c1 (configuration not stated)
[12]
  IC50: 2.99 µM (active)
[13]
  IC50: 3.94 µM (active)

## O=C(O)COn1c(-c2ccc(Cl)cc2)nc2ccc(Cl)cc21
[14]
  IC50: > 100 µM (inactive)

## O=C(CCN1C(=O)/C(=C/c2ccccc2Cl)SC1=S)NC1CCS(=O)(=O)C1 (configuration not stated)
[15]
  IC50: 5.22 µM (active)
[16]
  IC50: > 50 µM (inactive)

## COc1ccc(N2C(=O)NC(=O)/C(=C\c3c[nH]c4ccccc34)C2=O)cc1
[15]
  IC50: 23.7 µM (active)
[16]
  IC50: > 50 µM (inactive)

## Cc1cc(C)n(C(=O)C23CC4CC(CC(C4)C2)C3)n1
[14]
  IC50: > 100 µM (inactive)

## COc1ccc2[nH]c(-c3ccccn3)nc2c1
[1]
  EC50: > 71.5 µM (inactive)

## COc1ccc(/C=C2\CC/C(=C\c3ccc(OC)c(OC)c3)C2=O)cc1OC
[12]
  IC50: 5.6 µM (active)
[13]
  IC50: 5.24 µM (active)
